Drawing on patent US20070021434A1, “NON-NUCLEOSIDE ANTI-HEPACIVIRUS AGENTS AND USES THEREOF” (Migenix Inc., priority 2005, published 2007), this text covers IC50 for 26 compounds.

SMILES strings stand for the structures. pIC50: −log10 of the molar value.

This assay has as its target HCV RdRp (NS5B) (UniProt P26663). Format: biochemical, hepatitis C virus.

Sequence of HCV RdRp (NS5B) (P26663 whole entry, looked up): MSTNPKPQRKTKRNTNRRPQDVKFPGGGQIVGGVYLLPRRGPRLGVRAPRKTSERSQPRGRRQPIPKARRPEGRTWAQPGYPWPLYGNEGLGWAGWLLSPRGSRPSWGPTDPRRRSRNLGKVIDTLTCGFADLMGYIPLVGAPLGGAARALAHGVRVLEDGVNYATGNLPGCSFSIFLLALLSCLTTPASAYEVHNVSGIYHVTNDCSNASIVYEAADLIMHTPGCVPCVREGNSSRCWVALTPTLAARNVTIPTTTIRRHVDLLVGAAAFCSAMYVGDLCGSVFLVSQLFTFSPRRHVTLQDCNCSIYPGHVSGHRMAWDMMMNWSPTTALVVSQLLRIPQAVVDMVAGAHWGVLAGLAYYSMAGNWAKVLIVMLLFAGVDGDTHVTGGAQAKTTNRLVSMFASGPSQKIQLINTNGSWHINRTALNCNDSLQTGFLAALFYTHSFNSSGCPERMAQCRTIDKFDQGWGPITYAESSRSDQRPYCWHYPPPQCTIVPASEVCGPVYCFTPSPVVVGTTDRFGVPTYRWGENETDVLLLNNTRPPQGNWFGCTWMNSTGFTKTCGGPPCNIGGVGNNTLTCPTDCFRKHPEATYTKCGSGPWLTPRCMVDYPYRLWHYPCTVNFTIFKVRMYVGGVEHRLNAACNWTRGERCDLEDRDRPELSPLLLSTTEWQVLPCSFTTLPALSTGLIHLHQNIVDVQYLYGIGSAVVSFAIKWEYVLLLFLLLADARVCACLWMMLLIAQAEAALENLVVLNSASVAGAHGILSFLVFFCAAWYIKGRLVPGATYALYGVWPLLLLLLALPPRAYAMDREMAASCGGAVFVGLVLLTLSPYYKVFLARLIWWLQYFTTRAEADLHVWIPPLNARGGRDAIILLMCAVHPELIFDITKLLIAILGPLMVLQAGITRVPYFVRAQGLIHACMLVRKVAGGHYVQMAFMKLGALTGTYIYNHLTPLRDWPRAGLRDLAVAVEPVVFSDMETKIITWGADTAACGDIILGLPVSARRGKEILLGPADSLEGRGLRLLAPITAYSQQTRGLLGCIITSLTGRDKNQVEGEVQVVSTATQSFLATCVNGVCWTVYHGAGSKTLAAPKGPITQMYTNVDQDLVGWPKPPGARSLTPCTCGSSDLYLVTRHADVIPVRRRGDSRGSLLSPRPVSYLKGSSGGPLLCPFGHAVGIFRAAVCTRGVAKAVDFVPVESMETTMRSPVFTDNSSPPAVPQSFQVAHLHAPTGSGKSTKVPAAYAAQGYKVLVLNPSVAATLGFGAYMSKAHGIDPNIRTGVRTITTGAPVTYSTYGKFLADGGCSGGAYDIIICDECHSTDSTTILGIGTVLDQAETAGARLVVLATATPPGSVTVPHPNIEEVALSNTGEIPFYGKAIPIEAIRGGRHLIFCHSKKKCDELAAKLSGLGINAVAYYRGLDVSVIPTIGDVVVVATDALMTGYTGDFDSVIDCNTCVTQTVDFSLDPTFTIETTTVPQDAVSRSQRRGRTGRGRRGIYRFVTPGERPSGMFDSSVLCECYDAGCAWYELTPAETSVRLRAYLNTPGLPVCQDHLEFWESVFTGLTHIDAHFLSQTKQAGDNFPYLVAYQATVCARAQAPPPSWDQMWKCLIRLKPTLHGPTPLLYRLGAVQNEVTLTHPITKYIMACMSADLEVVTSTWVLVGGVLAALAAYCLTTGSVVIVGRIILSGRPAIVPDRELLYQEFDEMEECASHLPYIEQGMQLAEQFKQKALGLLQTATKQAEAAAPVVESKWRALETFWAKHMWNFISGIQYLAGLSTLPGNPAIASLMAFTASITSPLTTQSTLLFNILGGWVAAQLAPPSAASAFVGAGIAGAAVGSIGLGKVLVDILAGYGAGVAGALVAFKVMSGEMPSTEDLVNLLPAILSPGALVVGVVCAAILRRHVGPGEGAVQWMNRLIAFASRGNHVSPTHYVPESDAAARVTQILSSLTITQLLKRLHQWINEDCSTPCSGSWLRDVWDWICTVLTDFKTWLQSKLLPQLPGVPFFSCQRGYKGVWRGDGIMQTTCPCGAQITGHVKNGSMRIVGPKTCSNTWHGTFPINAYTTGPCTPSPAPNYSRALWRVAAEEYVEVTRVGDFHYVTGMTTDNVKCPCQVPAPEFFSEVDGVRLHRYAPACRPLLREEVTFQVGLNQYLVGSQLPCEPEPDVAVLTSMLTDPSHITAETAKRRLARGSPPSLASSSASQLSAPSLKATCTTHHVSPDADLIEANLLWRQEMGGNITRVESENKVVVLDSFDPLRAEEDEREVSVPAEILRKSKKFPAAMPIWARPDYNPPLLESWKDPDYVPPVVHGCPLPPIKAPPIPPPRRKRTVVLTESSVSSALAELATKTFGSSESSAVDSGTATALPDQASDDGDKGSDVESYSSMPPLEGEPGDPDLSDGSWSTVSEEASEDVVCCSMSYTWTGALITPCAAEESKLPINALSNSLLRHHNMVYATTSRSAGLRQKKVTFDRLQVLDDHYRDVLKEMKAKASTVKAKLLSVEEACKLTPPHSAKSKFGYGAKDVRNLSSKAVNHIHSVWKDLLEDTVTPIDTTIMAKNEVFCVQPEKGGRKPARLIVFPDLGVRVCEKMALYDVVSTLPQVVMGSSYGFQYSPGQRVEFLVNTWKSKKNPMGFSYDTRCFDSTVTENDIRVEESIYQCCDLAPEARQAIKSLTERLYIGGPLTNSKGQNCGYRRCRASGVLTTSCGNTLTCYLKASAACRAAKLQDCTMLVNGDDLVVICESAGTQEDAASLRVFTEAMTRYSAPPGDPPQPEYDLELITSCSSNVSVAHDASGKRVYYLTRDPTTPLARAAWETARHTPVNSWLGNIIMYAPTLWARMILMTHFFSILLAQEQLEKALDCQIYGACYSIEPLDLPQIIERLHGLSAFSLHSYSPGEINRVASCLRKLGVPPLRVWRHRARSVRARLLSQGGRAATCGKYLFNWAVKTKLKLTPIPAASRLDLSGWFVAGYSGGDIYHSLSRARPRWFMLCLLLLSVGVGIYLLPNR

For the compound `Cc1ccc(NC(=O)C(CCCN)NC(=O)OCC2c3ccccc3-c3ccccc32)cc1` [Compound 102, (R)-(4-AMINO-1-P-TOLYLCARBAMOYL-BUTYL)-CARBAMIC ACID 9H-FLUOREN-9-YLMETHYL ESTER], the pIC50 (as a rule, the IC50 on a negative log10 scale, so that one unit is a factor of ten) was below 4.30.
In the case of `NCCC[C@@H](NC(=O)Nc1ccc(OCc2ccccc2)cc1)C(=O)Nc1ccc(C2CCCCC2)cc1` [Compound 202, (R)-5-AMINO-2-[3-(4-BENZYLOXY-PHENYL)-UREIDO]-PENTANOIC ACID (4-CYCLOHEXYL-PHENYL)-AMIDE] it was above 5.00; in that of `Cc1ccc(NC(=O)[C@H](CCCCN)NC(=O)Nc2ccc(Oc3ccccc3)cc2)cc1` [Compound 41, (S)-6-AMINO-2-[3-(4-PHENOXY-PHENYL)-UREIDO]-HEXANOIC ACID P-TOLYLAMIDE], below 4.30; in that of `Cc1ccc(NC(=O)[C@H](CCCCN)NC(=O)Nc2ccc(OCc3ccccc3F)cc2)cc1` [Compound 248, (S)-6-AMINO-2-{3-[4-(2-FLUORO-BENZYLOXY)-PHENYL]-UREIDO}-HEXANOIC ACID P-TOLYLAMIDE], 4.30 to 5.00.
In the case of `NCCCC[C@@H](NC(=O)NCc1ccccc1)C(=O)Nc1ccc(C2CCCCC2)cc1` [Compound 141, (R)-6-AMINO-2-(3-BENZYL-UREIDO)-HEXANOIC ACID (4-CYCLOHEXYL-PHENYL)-AMIDE], the pIC50 was above 5.00.
In the case of `NCCCC[C@H](NC(=O)Nc1cccc2ccccc12)C(=O)Nc1ccc(CN(C(=O)c2ccco2)C2CCCCC2)cc1` [Compound 31, (S)-FURAN-2-CARBOXYLIC ACID {4-[6-AMINO-2-(3-NAPHTHALEN-1-YL-UREIDO)-HEXANOYLAMINO]-BENZYL}-CYCLOHEXYL-AMIDE] it was 4.30 to 5.00.
In the case of `O=C(CNC(=O)OCC1c2ccccc2-c2ccccc21)Nc1ccc(CN(C(=O)c2ccco2)C2CCCCC2)cc1` [Compound 18, [(4-{[CYCLOHEXYL-(FURAN-2-CARBONYL)-AMINO]-METHYL}-PHENYLCARBAMOYL)-METHYL]-CARBAMIC ACID 9H-FLUOREN-9-YLMETHYL ESTER] it was below 4.30; in that of `Cc1ccc(NC(=O)[C@H](CCCCN)NC(=O)Nc2ccc(NCc3ccc(F)cc3)cc2)cc1` [Compound 225, (S)-6-AMINO-2-{3-[4-(4-FLUORO-BENZYLAMINO)-PHENYL]-UREIDO}-HEXANOIC ACID P-TOLYLAMIDE], below 4.30; in that of `Cc1ccc(NC(=O)C(CCCCN)NC(=O)Nc2ccc(-c3ccccc3)cc2)cc1` [Compound 171, (R)-6-AMINO-2-(3-BIPHENYL-4-YL-UREIDO)-HEXANOIC ACID P-TOLYLAMIDE], 4.30 to 5.00.
Turning to `COc1ccc(C=Cc2ccc(NC(=O)N[C@@H](CCCCN)C(=O)Nc3ccc(C)cc3)cc2)cc1` [Compound 252, (S)-6-AMINO-2-(3-{4-[2-(4-METHOXY-PHENYL)-VINYL]-PHENYL}-UREIDO)-HEXANOIC ACID P-TOLYLAMIDE], the pIC50 is above 5.00.
`Cc1ccc(NC(=O)[C@H](CCCCN)NC(=O)Nc2ccc(OCc3c(F)cccc3F)cc2)cc1` [Compound 287, (S)-6-AMINO-2-{3-[4-(2,6-DIFLUORO-BENZYLOXY)-PHENYL]-UREIDO}-HEXANOIC ACID P-TOLYLAMIDE]: the pIC50 was 4.30 to 5.00.
With `Cc1ccc(NC(=O)C(CCCCN)NC(=O)Nc2cccc(-c3nc4ccccc4o3)c2)cc1` [Compound 271, (S)-6-AMINO-2-[3-(3-BENZOOXAZOL-2-YL-PHENYL)-UREIDO]-HEXANOIC ACID P-TOLYLAMIDE] the figure was above 5.00; with `COc1cc2ccccc2cc1C(=O)NC(CCCCN)C(=O)Nc1ccc(C)cc1` [Compound 65, (S)-3-METHOXY-NAPHTHALENE-2-CARBOXYLIC ACID (5-AMINO-1-P-TOLYLCARBAMOYL-PENTYL)-AMIDE], below 4.30; with `NCCC(=O)Nc1ccccc1NC(=O)CNC(=O)OCC1c2ccccc2-c2ccccc21` [Compound 312, {[2-(3-AMINO-PROPIONYLAMINO)-PHENYLCARBAMOYL]-METHYL}-CARBAMIC ACID 9H-FLUOREN-9-YLMETHYL ESTER], below 4.30.
`C=CCOC(=O)NCCCC[C@H](N)C(=O)Nc1ccc(CN(C(=O)c2ccco2)C2CCCCC2)cc1` [Compound 5, (S)-[5-AMINO-5-(4-{[CYCLOHEXYL-(FURAN-2-CARBONYL)-AMINO]-METHYL}-PHENYLCARBAMOYL)-PENTYL]-CARBAMIC ACID ALLYL ESTER] had a pIC50 below 4.30.
On to `Cc1ccc(NC(=O)C(CCCNC(=N)N(C)C)NC(=O)OCC2c3ccccc3-c3ccccc32)cc1` [Compound 111, (S)-[4-(3,3-DIMETHYL-GUANIDINO)-1-P-TOLYLCARBAMOYL-BUTYL]-CARBAMIC ACID 9H-FLUOREN-9-YLMETHYL ESTER], for which the pIC50 was below 4.30.
`CC(C)(NC(=O)c1ccc(C(=O)O)cc1)C(=O)Nc1ccc(CN(C(=O)c2ccco2)C2CCCCC2)cc1` [Compound 4, N-[1-(4-{[CYCLOHEXYL-(FURAN-2-CARBONYL)-AMINO]-METHYL}-PHENYLCARBAMOYL)-1-METHYL-ETHYL]-TERE[…]]: the pIC50 was below 4.30.
`Cc1ccc(NC(=O)[C@H](CCCCN)NC(=O)CNCc2ccccc2F)cc1` [Compound 344, (S)-6-AMINO-2-[2-(2-FLUORO-BENZYLAMINO)-ACETYLAMINO]-HEXANOIC ACID P-TOLYLAMIDE] had a pIC50 below 4.30.
In the case of `Cc1ccc(NC(=O)C(CCCCN)NC(=O)CCc2c[nH]c3ccccc23)cc1` [Compound 89, (S)-6-AMINO-2-(3-1H-INDOL-3-YL-PROPIONYLAMINO)-HEXANOIC ACID P-TOLYLAMIDE] it was below 4.30; in that of `Cc1ccc(NC(=O)[C@H](CCCN)NC(=O)Nc2ccc3c(c2)Cc2ccccc2-3)cc1` [Compound 190, (S)-5-AMINO-2-[3-(9H-FLUOREN-2-YL)-UREIDO]-PENTANOIC ACID P-TOLYLAMIDE], above 5.00.
In the case of `Cc1ccc(NC(=O)C(CCCN)NC(=O)Nc2ccc(-c3ccccc3)cc2)cc1` [Compound 191, (R)-5-AMINO-2-(3-BIPHENYL-4-YL-UREIDO)-PENTANOIC ACID P-TOLYLAMIDE] it was below 4.30; in that of `Cc1ccc(NC(=O)C(CC(=O)O)NC(=O)OCC2c3ccccc3-c3ccccc32)cc1` [Compound 371, (R)-3-(9H-FLUOREN-9-YLMETHOXYCARBONYLAMINO)-NR-P-TOLYL-[…]], below 4.30; in that of `NCCCC[C@@H](NC(=O)NC1c2ccccc2-c2ccccc21)C(=O)Nc1ccc(C2CCCCC2)cc1` [Compound 195, (R)-6-AMINO-2-[3-(9H-FLUOREN-9-YL)-UREIDO]-HEXANOIC ACID (4-CYCLOHEXYL-PHENYL)-AMIDE], above 5.00.
The compound `Cc1ccc(NC(=O)C(CCCCN)NC(=O)CN(C)Cc2ccccc2)cc1` [Compound 353, (S)-6-AMINO-2-[2-(BENZYL-METHYL-AMINO)-ACETYLAMINO]-HEXANOIC ACID P-TOLYLAMIDE] had a pIC50 below 4.30.
`COc1ccc(C[C@H](N)C(=O)Nc2ccc(CN(C(=O)c3ccco3)C3CCCCC3)cc2)cc1` [Compound 9, (S)-FURAN-2-CARBOXYLIC ACID {4-[2-AMINO-3-(4-METHOXY-PHENYL)-PROPIONYLAMINO]-BENZYL}-CYCLOHEXYL-AMIDE] showed a pIC50 below 4.30.
For `NCCCC[C@@H](NC(=O)NCc1ccc(Cl)cc1)C(=O)Nc1ccc(C2CCCCC2)cc1` [Compound 164, (R)-6-AMINO-2-[3-(4-CHLORO-BENZYL)-UREIDO]-HEXANOIC ACID (4-CYCLOHEXYL-PHENYL)-AMIDE], the pIC50 is above 5.00.
